Legend:
[1] = tested on: human brain microvascular endothelial cell (BMEC); assay: sAPP770 secreted from BMEC detected by APP770 ELISA; format: cell-based; conditions: culture 16 hr, n=4; for level of sAPP770 secreted from BMEC: cytokine 100 ng/ml
Excerpt: (A) Brief explanations of APP total ELISA and APP770 ELISA. The recognition sites of a trap antibody (with asterisk) and a detection antibody (without asterisk) in these ELISA systems are shown in the schematic drawing. (B) Western blot analysis. Anti-N terminal APP (22C11) antibody detects full-length APP695, APP751 and APP770 in the lysates of COS cells overexpressing APP695, APP751 and APP770, whereas anti-OX2 antibody used as a trap antibody in APP770 ELISA specifically recognizes APP770. (C) APP total ELISA detects sAPP695, sAPP751 and sAPP770 secreted from COS cells, whereas APP770 ELISA detects only sAPP770. (D) BMEC was cultured for 16 hr in the presence or absence of inflammatory cytokine (TNFα, IL-1β or IL-6; each 100 ng/ml), and sAPP770 secreted from the cells was detected by APP770 ELISA. […] (E) An influence on secretion of sAPP770 from BMEC by culture for 16 hr in the presence of TAPI-0 (10 μM). […] (F) The sAPP770 levels of human serum and human plasma samples are shown in mean±SEM (n=19).
Human APP695-pcDNA3.1, APP751-pcDNA3.1 and APP770-pcDNA3.1 used were those constructed in the previous study (J Biol Chem 285(51):40097-40103 (2010)). Human BMEC (Applied Cell Biology Research Institute) was cultured in CS-C complete medium added with 10% FBS, and used within 4 passages.
Using human sAPP total assay kit (IBL-Japan), sAPP695, sAPP751 and sAPP770 were detected according to the established protocol (http://www.ibl-japan.co.jp). The APP770 ELISA system was established as previously reported (Anal Chim Acta 631(1): 116-120 (2009)). Briefly explained, a 96 well plate was coated with an anti-OX2 antibody, and a horseradish peroxidase-conjugated anti-APP R101A4 antibody was used as a detection antibody. Human CSF (1:16 diluted with dilution buffer contained in kit), plasma and serum (1:75 diluted with dilution buffer contained in kit) were evaluated by APP total ELISA and APP770 ELISA.

platelets = assay: release of sAPP770 from collagen-stimulated platelets (PRP), APP770 ELISA; format: cell-based, human; conditions: collagen final concentration 3 μg/ml
Method: (A, B) PRP was stirred under stimulation with collagen (final concentration 3 μg/ml). At the time points shown in the Figure, each sample was centrifuged, and supernatant (A) […] and platelet pellet (B) were analyzed by APP770 ELISA. (C) Platelets were washed, stimulated with collagen, centrifuged, and sAPP770 released in the supernatant was analyzed. (D) Schematic drawing showing APP770 and the sites recognized by a series of anti-APP antibodies. (E) After stimulation of platelets with collagen and, at the time points shown in the Figure, the platelet pellets were solubilized, sAPP was pulled down from the platelet release product, and analyzed by western blotting using anti-APP(22C11) antibody, anti-OX2 antibody, anti-APP(C) antibody and anti-KPI antibody. […]
On the day of experiment, blood (16 ml) was collected from healthy human by using a vacuum blood collection tube (NIPRO CORPORATION) containing 3.8% sodium citrate. […] The obtained cell lysate was evaluated by ELISA and Western blot analysis.
Using human sAPP total assay kit (IBL-Japan), sAPP695, sAPP751 and sAPP770 were detected according to the established protocol (http://www.ibl-japan.co.jp). […] Human CSF (1:16 diluted with dilution buffer contained in kit), plasma and serum (1:75 diluted with dilution buffer contained in kit) were evaluated by APP total ELISA and APP770 ELISA.

| Molecule | level of sAPP770 secreted from BMEC [1] | other results |
| --- | --- | --- |
| CC(C)C[C@H](CC(=O)NO)C(=O)N[C@@H](Cc1ccc2ccccc2c1)C(=O)N[C@@H](C)C(N)=O [TAPI-0] | – | secretion of sAPP770 from BMEC ([1]; TAPI-0 10 μM): partially inhibited |
| IL-1β: recombinant human inflammatory cytokine from R&D Systems | significantly increased only slightly | – |
| IL-6: recombinant human inflammatory cytokine from R&D Systems | did not increase | – |
| TNFα | significantly increased only slightly | – |
| collagen | – | level of sAPP770 in the platelet precipitate (platelets; after stimulation): decreased remarkably; level of sAPP770 in the PRP supernatant (platelets; one minute after stimulation): increased rapidly |

— patent publication US20150219644A1, “MARKER FOR ACUTE CORONARY SYNDROME, AND USE THEREOF” (RIKEN, priority 2012, published 2015)
